Results from patent US11141432B2, “Materials and methods for increasing immune responses” (Mayo Foundation for Medical Education and Research, priority 2016, dated 2021).
Where a SMILES comes first, the peptide text is derived from it. The star is where a group is joined. Cbz = O=C(OCc1ccccc1)*; CH2F = FC*

Tests used:
[1] = system: CD8+ T cells obtained from OT-1 PL Rag−/− TCR transgenic mice; assay: Proliferation, clonal expansion and apoptosis of antigen-stimulated CD8+ T cells; format: cell-based
Description: (§1) Naïve or resting CD8+ T cells obtained from OT-1 PL Rag−/− TCR transgenic mice were stimulated in vitro with its cognate antigen in the presence of B7.1 co-stimulatory molecule, and cytokine IL-12 for 48h. The antigen constitutes sulfate latex microspheres (Life Technologies Cat. No. S37227) bearing DimerX Ig-recombinant dimeric mouse H-2Kb: Ig fusion protein (BD Biosciences, Cat. No. 550750) with recombinant mouse B7-1/CD80 Fc chimeric protein (R&D Systems, Cat. No. 740-B). Short synthetic peptide SIINFEKL (SEQ ID NO:1) at 10 nM concentration (sequence derived from a chicken ovalbumin protein), presented by H-2Kb DimerX serves as the cognate antigen for TCR of CD8+ T cells from OT-1 PL Rag−/−TCR transgenic mice. CD8+ T cells isolated from lymph nodes and/or spleen were stimulated with antigen in the following culture medium: Glutamine-free RPMI (Corning CellGro, Cat. No. 15-040-CV) supplemented with FBS 10%, HEPES 10 mM, NEAA 1 mM, sodium pyruvate 1 mM, glutamine 2 mM, 2-mercaptoethanol 50 μM, and Pen/Strep. T cells were cultured in flat-bottom 96-well plates at 2×105/0.2 ml/well with microspheres at the ratio of 5:1. Genipin was added at 50 μM concentration (based on dose titration that produces minimal cell death) and preincubated with cells for 45 mins before subjecting the CD8+ T cells to antigen stimulation. The CD8+ T cells are cultured and harvested at 4 hours to 48 hours for evaluation by molecular, physiologic and phenotypic characteristics by standard methodologies like flow cytometry based phenotyping, lysis for protein or mRNA derivation using western blot, PCR and metabolic flux analysis. Signal one was provided by MHC Class I (H-2Kb) dimers bearing 1-10 nM of OT-1 cognate peptide (SIINFEKL; SEQ ID NO:1) (Ag). Signal two was provided by 1 μg/ml of recombinant murine B7.1 (co-stimulation) immobilized on inert latex microspheres (serves as artificial antigen presenting cells) in the presence of the third signal; 2 ng/ml of rmIL-12 (cytokine). For antigen stimulation, the naïve T cells and latex microspheres were reacted at a ratio of 5:1 (T cells: microspheres) for various time points and were evaluated for their molecular, physiologic and phenotypic characteristics by standard methodologies including flow cytometry, western blot, PCR and metabolic flux analysis (FIG. 1). To determine whether UCP2 plays a role in antigen induced ROS generation and determine its impact on CD8+ T cell clonal expansion, antigen induced cytoplasmic (CROS) and/or mitochondrial ROS (mROS) production was evaluated by CM-H2DCFDA and MitoSox staining and flow cytometry analysis, respectively. Genetic (si-UCP2) or pharmacological (Genipin) means were used to block UCP2 function.

[2] = system: antigen stimulated OT-1 cells; assay: Antigen-induced cytoplasmic and mitochondrial ROS by CM-H2DCFDA and MitoSox staining and flow cytometry; format: cell-based, mice
Description: Naïve or resting CD8+ T cells obtained from OT-1 PL Rag−/− TCR transgenic mice were stimulated in vitro with its cognate antigen in the presence of B7.1 co-stimulatory molecule, and cytokine IL-12 for 48h. The antigen constitutes sulfate latex microspheres (Life Technologies Cat. No. S37227) bearing DimerX Ig-recombinant dimeric mouse H-2Kb: Ig fusion protein (BD Biosciences, Cat. No. 550750) with recombinant mouse B7-1/CD80 Fc chimeric protein (R&D Systems, Cat. No. 740-B). Short synthetic peptide SIINFEKL (SEQ ID NO:1) at 10 nM concentration (sequence derived from a chicken ovalbumin protein), presented by H-2Kb DimerX serves as the cognate antigen for TCR of CD8+ T cells from OT-1 PL Rag−/−TCR transgenic mice. CD8+ T cells isolated from lymph nodes and/or spleen were stimulated with antigen in the following culture medium: Glutamine-free RPMI (Corning CellGro, Cat. No. 15-040-CV) supplemented with FBS 10%, HEPES 10 mM, NEAA 1 mM, sodium pyruvate 1 mM, glutamine 2 mM, 2-mercaptoethanol 50 μM, and Pen/Strep. […] To determine whether UCP2 plays a role in antigen induced ROS generation and determine its impact on CD8+ T cell clonal expansion, antigen induced cytoplasmic (CROS) and/or mitochondrial ROS (mROS) production was evaluated by CM-H2DCFDA and MitoSox staining and flow cytometry analysis, respectively. […]

[3] = system: CD8+ T cells; assay: Metabolic flux analysis (ECAR/OCR, spare respiratory capacity) of antigen-stimulated CD8+ T cells; format: cell-based, mice; details: antigen stimulation in the presence of Genipin, FIG. 4A
Description: Naïve or resting CD8+ T cells obtained from OT-1 PL Rag−/− TCR transgenic mice were stimulated in vitro with its cognate antigen in the presence of B7.1 co-stimulatory molecule, and cytokine IL-12 for 48h. The antigen constitutes sulfate latex microspheres (Life Technologies Cat. No. S37227) bearing DimerX Ig-recombinant dimeric mouse H-2Kb: Ig fusion protein (BD Biosciences, Cat. No. 550750) with recombinant mouse B7-1/CD80 Fc chimeric protein (R&D Systems, Cat. No. 740-B). Short synthetic peptide SIINFEKL (SEQ ID NO:1) at 10 nM concentration (sequence derived from a chicken ovalbumin protein), presented by H-2Kb DimerX serves as the cognate antigen for TCR of CD8+ T cells from OT-1 PL Rag−/−TCR transgenic mice. CD8+ T cells isolated from lymph nodes and/or spleen were stimulated with antigen in the following culture medium: Glutamine-free RPMI (Corning CellGro, Cat. No. 15-040-CV) supplemented with FBS 10%, HEPES 10 mM, NEAA 1 mM, sodium pyruvate 1 mM, glutamine 2 mM, 2-mercaptoethanol 50 μM, and Pen/Strep. […] For antigen stimulation, the naïve T cells and latex microspheres were reacted at a ratio of 5:1 (T cells: microspheres) for various time points and were evaluated for their molecular, physiologic and phenotypic characteristics by standard methodologies including flow cytometry, western blot, PCR and metabolic flux analysis (FIG. 1).

[4] = system: CD8+ T cells; assay: Lipid content / de novo lipid synthesis in antigen-stimulated CD8+ T cells; format: cell-based, mice
Description: Naïve or resting CD8+ T cells obtained from OT-1 PL Rag−/− TCR transgenic mice were stimulated in vitro with its cognate antigen in the presence of B7.1 co-stimulatory molecule, and cytokine IL-12 for 48h. The antigen constitutes sulfate latex microspheres (Life Technologies Cat. No. S37227) bearing DimerX Ig-recombinant dimeric mouse H-2Kb: Ig fusion protein (BD Biosciences, Cat. No. 550750) with recombinant mouse B7-1/CD80 Fc chimeric protein (R&D Systems, Cat. No. 740-B). Short synthetic peptide SIINFEKL (SEQ ID NO:1) at 10 nM concentration (sequence derived from a chicken ovalbumin protein), presented by H-2Kb DimerX serves as the cognate antigen for TCR of CD8+ T cells from OT-1 PL Rag−/−TCR transgenic mice. CD8+ T cells isolated from lymph nodes and/or spleen were stimulated with antigen in the following culture medium: Glutamine-free RPMI (Corning CellGro, Cat. No. 15-040-CV) supplemented with FBS 10%, HEPES 10 mM, NEAA 1 mM, sodium pyruvate 1 mM, glutamine 2 mM, 2-mercaptoethanol 50 μM, and Pen/Strep. T cells were cultured in flat-bottom 96-well plates at 2×105/0.2 ml/well with microspheres at the ratio of 5:1. Genipin was added at 50 μM concentration (based on dose titration that produces minimal cell death) and preincubated with cells for 45 mins before subjecting the CD8+ T cells to antigen stimulation. […]

[5] = system: CD8+ T cells; assay: Phenotyping of effector differentiation markers and transcription factors in CD8+ T cells; format: cell-based, mice; details: CD8+ T cells treated with Genipin
Description: as §1, with “1).” for “1). To determine whether UCP2 plays a role in antigen induced ROS generation and determine its impact on CD8+ T cell clonal expansion, antigen induced cytoplasmic (CROS) and/or mitochondrial ROS (mROS) production was evaluated by CM-H2DCFDA and MitoSox staining and flow cytometry analysis, respectively. Genetic (si-UCP2) or pharmacological (Genipin) means were used to block UCP2 function.”

[6] = UCP2 inhibited OT-1 cells, FIG. 3C

COC(=O)C1=CO[C@@H](O)[C@@H]2C(CO)=CC[C@H]12 [Genipin]
proliferation of activated CD8+ T cells ([1]; Genipin treated, 50 μM, FIG. 3A): limited proliferation
apoptosis (contraction in clonal expansion) ([1]; Genipin treated, FIG. 3B): increased apoptosis
mitochondrial reactive oxygen species (ROS) ([2]; Genipin treated): increase
ECAR/OCR ratio (glycolysis over mitochondrial respiration) [3]: higher
spare respiratory capacity (SRC) [3]: very low
lipid content (de novo lipid synthesis) ([4]; antigen stimulation in the presence of Genipin, FIG. 4B): increased lipid content
PD-1 and Lag3 expression [5]: increases
Blimp1/BC16 ratio ([5]; FIG. 5): increasing
Tbet/Eomes ratio ([5]; FIG. 5): increasing
expression of IFNγ, Gzmb, and effector cell markers KLRG1 and CXCR3 ([5]; FIG. 5): increased expression

CC1(C)CC(NC(=O)C[P+](c2ccccc2)(c2ccccc2)c2ccccc2)CC(C)(C)N1[O] [MitoTempo]
cell proliferation and cell contraction after quenching of mitochondrial ROS [1, 6]: restored
mitochondrial ROS after quenching with mitochondrially targeted antioxidant [2, 6]: reverses ROS

CC(NC(=O)C(NC(=O)OCc1ccccc1)C(C)C)C(=O)NC(CC(=O)O)C(=O)CF (stereo not drawn) [ZVAD] (Cbz-Val-Ala-Asp-CH2F; configuration not given here)
Genipin-induced contraction in clonal expansion on addition of pan caspase inhibitor ([1]; added to Genipin treated cells, FIG. 3B): can be reversed

SML0068
lipid synthesis on blocking cytoplasmic export of citrate from the mitochondria ([4]; UCP2 inhibited cells, FIG. 4D): reduced lipid synthesis
